Measurements taken from patent publication US20060035920A1, “Chk-1 inhibitors” (Millennium Pharmaceuticals, Inc., priority 2004, published 2006).

Target: T1, Recombinant human Chk1 (GST-Chk1) (Homo sapiens, UniProt O14757)
T1 construct: made in house; host or cells: insect cells (baculovirus, Bac-to-Bac system)
T1 sequence (O14757 1-476): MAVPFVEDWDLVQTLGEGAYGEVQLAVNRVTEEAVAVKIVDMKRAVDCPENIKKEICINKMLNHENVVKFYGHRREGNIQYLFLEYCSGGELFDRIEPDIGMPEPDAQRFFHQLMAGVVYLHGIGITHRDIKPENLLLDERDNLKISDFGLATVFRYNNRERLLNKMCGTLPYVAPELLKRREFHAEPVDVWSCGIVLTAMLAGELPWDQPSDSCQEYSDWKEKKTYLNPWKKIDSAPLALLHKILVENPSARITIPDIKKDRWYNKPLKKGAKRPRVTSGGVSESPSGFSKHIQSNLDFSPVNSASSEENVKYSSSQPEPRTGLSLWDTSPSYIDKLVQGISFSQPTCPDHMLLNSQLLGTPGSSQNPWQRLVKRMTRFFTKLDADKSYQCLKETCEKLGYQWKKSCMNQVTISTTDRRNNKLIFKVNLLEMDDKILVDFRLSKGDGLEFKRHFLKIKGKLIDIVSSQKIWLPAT
Assay: Chk1 DELFIA Kinase Assay
Format: biochemical
Experimental: Recombinant human Chk1 was expressed as a fusion protein with glutathione S-transferase at the amino-terminus (GST-Chk1) using standard baculovirus vectors and (Bac-to-Bac®) insect cell expression system purchased from GIBCO™ Invitrogen. Recombinant protein expressed in insect cells was purified using glutathione sepharose (Amersham Biotech) using standard procedures described by the manufacturer.
Chk1 DELFIA® Kinase Assay:
Assays (25 μL) utilized 2 nM GST-Chk1 containing 10 mM Tris, pH 7.5, 20% glycerol, 50 mM sodium chloride (NaCl), 0.01% Surfact-Amps® 20, 1 μM peptide stubstrate (Biotin-GLYRSPSMPEN-amide) (SEQ ID NO: 2), 01.% BSA, 2 mM DTT, 4% DMSO, 600 μM ATP, 10 mM MgCl2 and reacted for 50 minutes at room temperature. Reactions were terminated with 100 μL of Stop buffer containing 1% BSA, 10 mM Tris, pH 8.0, 150 mM NaCl, 100 mM EDTA. Stopped reactions (100 μL) were transferred to 96 well NeutrAvidin plates (Pierce) to capture the biotin-peptide substrate during a 30 minute room temperature incubation. Wells were washed and reacted with 100 μL PerkinElmer Wallac Assay Buffer containing 21.5 ng/ml anti-phospho-Ser216-Cdc25c rabbit polyclonal antibody from Cell Signaling Technology (Beverly, Mass.) and 292 ng/ml europium labeled anti-rabbit-IgG for 1 hour at room temperature. Wells were washed and europium released from the bound antibody by addition of Enhancement Solution (100 μL) (PerkinElmer Wallac) and detected using a Perkin Elmer Wallac Envison™ 2100 multilabel reader using standard manufacturer settings.

[1] = GST-Chk1 kinase assay, bound given in nM
[2] = GST-Chk1 in vitro kinase assay, bound given in μM

SMILES	IC50 [1] [nM]	IC50 [2] [nM]
Cc1[nH]nc2c1c(=O)n(C)c1ccc(C#CCO)cc21 [Compound I-24, 8-(3-hydroxyprop-1-yn-1-yl)-3,5-dimethyl-2,5-dihydro-4H-pyrazolo[4,3-c]quinolin-4-one]	< 500	–
CCn1c(=O)c2c(C)[nH]nc2c2cc(-c3ccc(CN(C)C)s3)ccc21 [Compound I-50, 8-{5-[(dimethylamino)methyl]-2-thienyl}-5-ethyl-3-methyl-2,5-dihydro-4H-pyrazolo[4,3-c]quinolin-4-one]	< 500	–
Cc1[nH]nc2c1c(=O)n(C)c1ccc(C#CCN)cc21 [Compound I-23, 8-(3-aminoprop-1-yn-1-yl)-3,5-dimethyl-2,5-dihydro-4H-pyrazolo[4,3-c]quinolin-4-one]	< 500	–
Cc1[nH]nc2c1c(=O)n(C)c1ccc(C#CCN3CCCC3)cc21 [Compound I-12, 3,5-dimethyl-8-(3-pyrrolidin-1-ylprop-1-yn-1-yl)-2,5-dihydro-4H-pyrazolo[4,3-c]quinolin-4-one]	< 500	–
CCn1c(=O)c2c(C)[nH]nc2c2cc(-c3ccc(CN4CCCC4)o3)ccc21 [Compound I-55, 5-ethyl-3-methyl-8-[5-(pyrrolidin-1-ylmethyl)-2-furyl]-2,5-dihydro-4H-pyrazolo[4,3-c]quinolin-4-one]	< 500	–
CCn1c(=O)c2c(C)[nH]nc2c2cc(C#CCN3CCC3)ccc21 [Compound I-31, 8-(3-azetidin-1-ylprop-1-yn-1-yl)-5-ethyl-3-methyl-2,5-dihydro-4H-pyrazolo[4,3-c]quinolin-4-one]	< 500	–
CCn1c(=O)c2c(C)[nH]nc2c2cc(C#CCN(C(C)C)C(C)(C)C)ccc21 [Compound I-38, 8-{3-[tert-butyl(isopropyl)amino]prop-1-yn-1-yl}-5-ethyl-3-methyl-2,5-dihydro-4H-pyrazolo[4,3-c]quinolin-4-one]	< 500	–
CCn1c(=O)c2c(CCOC)[nH]nc2c2cc(C#CCN3CCCC3)ccc21 [Compound I-14, 5-ethyl-3-(2-methoxyethyl)-8-(3-pyrrolidin-1-ylprop-1-yn-1-yl)-2,5-dihydro-4H-pyrazolo[4,3-c]quinolin-4-one]	< 500	–
CCn1c(=O)c2c(C)[nH]nc2c2cc(-c3cn[nH]c3)ccc21 [Compound I-52, 5-ethyl-3-methyl-8-(1H-pyrazol-4-yl)-2,5-dihydro-4H-pyrazolo[4,3-c]quinolin-4-one]	> 500	< 1000
CCn1c(=O)c2c(C)[nH]nc2c2cc(C#CCN3[C@H](C)CC[C@H]3C)ccc21 (racemic) [Compound I-2, 8-{3-[(2S,5S)-2,5-dimethylpyrrolidin-1-yl]prop-1-yn-1-yl}-5-ethyl-3-methyl-2,5-dihydro-4H-pyrazolo[4,3-c]quinolin-4-one]	< 500	–
CCn1c(=O)c2c(C)[nH]nc2c2ccc(CCCN3CCCC3)cc21 [Compound I-42, 5-ethyl-3-methyl-7-(3-pyrrolidin-1-ylpropyl)-2,5-dihydro-4H-pyrazolo[4,3-c]quinolin-4-one]	> 500	< 1000
CCn1c(=O)c2c(C)[nH]nc2c2cc(C#CCN3[C@H](C)CCC[C@@H]3C)ccc21 [Compound I-37, 8-{3-[(2R,6S)-2,6-dimethylpiperidin-1-yl]prop-1-yn-1-yl}-5-ethyl-3-methyl-2,5-dihydro-4H-pyrazolo[4,3-c]quinolin-4-one]	< 500	–
CCn1c(=O)c2c(C)[nH]nc2c2cc(/C=C/CN3[C@H](C)CC[C@@H]3C)ccc21 [Compound I-41, 8-{(1E)-3-[(2R,5S)-2,5-dimethylpyrrolidin-1-yl]prop-1-en-1-yl}-5-ethyl-3-methyl-2,5-dihydro-4H-pyrazolo[4,3-c]quinolin-4-one]	< 500	–
CCn1c(=O)c2c(C)[nH]nc2c2cc(C#CCN3[C@H](C)CC[C@@H]3C)ccc21 [Compound I-3, 8-{3-[(2R,5S)-2,5-dimethylpyrrolidin-1-yl]prop-1-yn-1-yl}-5-ethyl-3-methyl-2,5-dihydro-4H-pyrazolo[4,3-c]quinolin-4-one]	< 500	–
CCn1c(=O)c2c(C)[nH]nc2c2cc(/C=C/CN3[C@@H](C)CC[C@@H]3C)ccc21 (racemic) [Compound I-40, 8-{(1E)-3-[(2S,5S)-2,5-dimethylpyrrolidin-1-yl]prop-1-en-1-yl}-5-ethyl-3-methyl-2,5-dihydro-4H-pyrazolo[4,3-c]quinolin-4-one]	< 500	–
CCn1c(=O)c2c(C)[nH]nc2c2cc(C#CCN3CCCC3)ccc21 [Compound I-21, 5-ethyl-3-methyl-8-(3-pyrrolidin-1-ylprop-1-yn-1-yl)-2,5-dihydro-4H-pyrazolo[4,3-c]quinolin-4-one]	< 500	–
CCn1c(=O)c2c(C)[nH]nc2c2cc(/C=C/CN(C(C)C)C(C)C)ccc21 [Compound I-44, 8-[(1E)-3-(diisopropylamino)prop-1-en-1-yl]-5-ethyl-3-methyl-2,5-dihydro-4H-pyrazolo[4,3-c]quinolin-4-one]	< 500	–
CCn1c(=O)c2c(C)[nH]nc2c2cc(/C=C/CN3CCCC3)ccc21 [Compound I-25, 5-ethyl-3-methyl-8-[(1E)-3-pyrrolidin-1-ylprop-1-en-1-yl]-2,5-dihydro-4H-pyrazolo[4,3-c]quinolin-4-one]	< 500	–
Cc1[nH]nc2c1c(=O)[nH]c1ccc(C#CCN3CCCC3)cc12 [Compound I-13, 3-methyl-8-(3-pyrrolidin-1-ylprop-1-yn-1-yl)-2,5-dihydro-4H-pyrazolo[4,3-c]quinolin-4-one]	< 500	–
Cc1[nH]nc2c1c(=O)n(CCO)c1ccc(C#CCN3CCCC3)cc21 [Compound I-17, 5-(2-hydroxyethyl)-3-methyl-8-(3-pyrrolidin-1-ylprop-1-yn-1-yl)-2,5-dihydro-4H-pyrazolo[4,3-c]quinolin-4-one]	< 500	–
Cc1[nH]nc2c1c(=O)n(CCCO)c1ccc(C#CCN3CCCC3)cc21 [Compound I-18, 5-(3-hydroxypropyl)-3-methyl-8-(3-pyrrolidin-1-ylprop-1-yn-1-yl)-2,5-dihydro-4H-pyrazolo[4,3-c]quinolin-4-one]	< 500	–
CCN(CC)Cc1ccc(-c2ccc3c(c2)c2n[nH]c(C)c2c(=O)n3CC)s1 [Compound I-46, 8-{5-[(diethylamino)methyl]-2-thienyl}-5-ethyl-3-methyl-2,5-dihydro-4H-pyrazolo[4,3-c]quinolin-4-one]	< 500	–
C#Cc1ccc2c(c1)c1n[nH]c(C)c1c(=O)n2C [Compound I-22, 8-ethynyl-3,5-dimethyl-2,5-dihydro-4H-pyrazolo[4,3-c]quinolin-4-one]	< 500	–
CCCn1c(=O)c2c(C)[nH]nc2c2cc(-c3ccc(CN(C)C)s3)ccc21 [Compound I-56, 8-{5-[(dimethylamino)methyl]-2-thienyl}-3-methyl-5-propyl-2,5-dihydro-4H-pyrazolo[4,3-c]quinolin-4-one]	< 500	–
CCn1c(=O)c2c(C)[nH]nc2c2cc(-c3ccc(CN4CCc5ccccc5C4)s3)ccc21 [Compound I-48, 8-[5-(3,4-dihydroisoquinolin-2(1H)-ylmethyl)-2-thienyl]-5-ethyl-3-methyl-2,5-dihydro-4H-pyrazolo[4,3-c]quinolin-4-one]	> 500	< 1000
CCn1c(=O)c2c(C)[nH]nc2c2cc(C#CCN(C)C)ccc21 [Compound I-11, 8-[3-(dimethylamino)prop-1-yn-1-yl]-5-ethyl-3-methyl-2,5-dihydro-4H-pyrazolo[4,3-c]quinolin-4-one]	< 500	–
CCN(CC)CC#Cc1ccc2c(c1)c1n[nH]c(C)c1c(=O)n2CC [Compound I-1, 8-[3-(diethylamino)prop-1-yn-1-yl]-5-ethyl-3-methyl-2,5-dihydro-4H-pyrazolo[4,3-c]quinolin-4-one]	< 500	–
CCn1c(=O)c2c(C)[nH]nc2c2cc(C#CCN3CCC(F)(F)C3)ccc21 [Compound I-30, 8-[3-(3,3-difluoropyrrolidin-1-yl)prop-1-yn-1-yl]-5-ethyl-3-methyl-2,5-dihydro-4H-pyrazolo[4,3-c]quinolin-4-one]	< 500	–
Cc1[nH]nc2c1c(=O)n(CC1CC1)c1ccc(C#CCN3CCCC3)cc21 [Compound I-6, 5-(cyclopropylmethyl)-3-methyl-8-(3-pyrrolidin-1-ylprop-1-yn-1-yl)-2,5-dihydro-4H-pyrazolo[4,3-c]quinolin-4-one]	< 500	–
